System: P. aeruginosa PA14
Assay: Potentiation of gentamycin on pre-formed biofilm
Format: cell-based, Pseudomonas aeruginosa
Conditions: 9 hr biofilm, M63 + arginine; BIF ~1 μM, Gm 0.1 mg/ml; 14 hours of incubation
Procedure: FIG. 10 is a bar graph showing the ability of purified BIF to potentiate the activity of gentamycin (Gm). A biofilm of P. aeruginosa PA14 was pre-formed by growing the bacteria for 9 hrs in minimal M63 medium supplemented with arginine (0.4%) in 96 well dishes (100 μl of medium per well). After 9 hrs, half of the media was removed and replaced with fresh medium containing Gm (0.1 mg/ml final concentration), BIF (˜1 μM final concentration), or both compounds. The biofilm was quantitated after an additional 14 hrs of incubation.
We predicted that addition of purified BIF might potentiate the effects of antimicrobial compounds. To test this hypothesis, we pre-formed a biofilm of P. aeruginosa by growing the bacteria for 9 hrs by growth in minimal M63 medium supplemented with arginine (0.4%) in 96 well dishes. The preformed biofilms were then treated with BIF alone or BIF plus gentamycin (Gm) at 0.1 mg/ml final concentration. At the concentrations tested, BIF (˜1 μM) and Gm (0.1 mg/ml) had no effect on pre-formed biofilms of P. aeruginosa when these compounds were used individually (FIG. 10).

Substance: gentamycin [Gm]
- effect on pre-formed biofilms of P. aeruginosa: no effect

From US20020123077A1, “Novel compounds capable of modulating biofilms” (priority 2000, published 2002)
